These results are taken from ChEMBL document CHEMBL6071121, “Synthetic approaches and clinical application of small-molecule inhibitors of sodium-dependent glucose transporters 2 for the treatment of type 2 diabetes mellitus” (Eur J Med Chem, 2024).

Some results are limits rather than exact numbers.

Assay [1] deals with T1, Sodium/glucose cotransporter 2 (Mus musculus) (UniProt Q923I7).
T1 sequence (whole entry): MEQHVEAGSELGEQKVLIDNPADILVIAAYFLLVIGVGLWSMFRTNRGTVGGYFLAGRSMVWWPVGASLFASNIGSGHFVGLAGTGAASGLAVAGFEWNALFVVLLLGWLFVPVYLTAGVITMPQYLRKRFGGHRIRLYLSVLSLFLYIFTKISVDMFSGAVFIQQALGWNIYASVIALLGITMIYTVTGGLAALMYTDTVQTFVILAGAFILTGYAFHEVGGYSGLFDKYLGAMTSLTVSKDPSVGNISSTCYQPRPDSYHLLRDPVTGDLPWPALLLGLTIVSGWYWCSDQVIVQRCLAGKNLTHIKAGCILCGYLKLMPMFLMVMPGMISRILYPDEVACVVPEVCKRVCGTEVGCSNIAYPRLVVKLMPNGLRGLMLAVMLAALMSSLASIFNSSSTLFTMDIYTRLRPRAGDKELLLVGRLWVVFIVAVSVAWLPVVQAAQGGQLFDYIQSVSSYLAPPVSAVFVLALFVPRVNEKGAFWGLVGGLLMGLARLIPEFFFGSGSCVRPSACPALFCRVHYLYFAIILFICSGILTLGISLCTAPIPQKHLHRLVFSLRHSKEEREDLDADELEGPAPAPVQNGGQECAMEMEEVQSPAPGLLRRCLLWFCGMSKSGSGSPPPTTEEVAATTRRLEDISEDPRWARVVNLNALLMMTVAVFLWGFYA
The assay is described as follows: In vivo inhibition of SGLT2-mediated reduction in urinary glucose excretion in mouse administered orally. Format: functional, organism-based. To be noted: route po.

The target in assay [2] is T2, Sodium/glucose cotransporter 2 (Rattus norvegicus) (UniProt P53792).
T2 sequence (whole entry): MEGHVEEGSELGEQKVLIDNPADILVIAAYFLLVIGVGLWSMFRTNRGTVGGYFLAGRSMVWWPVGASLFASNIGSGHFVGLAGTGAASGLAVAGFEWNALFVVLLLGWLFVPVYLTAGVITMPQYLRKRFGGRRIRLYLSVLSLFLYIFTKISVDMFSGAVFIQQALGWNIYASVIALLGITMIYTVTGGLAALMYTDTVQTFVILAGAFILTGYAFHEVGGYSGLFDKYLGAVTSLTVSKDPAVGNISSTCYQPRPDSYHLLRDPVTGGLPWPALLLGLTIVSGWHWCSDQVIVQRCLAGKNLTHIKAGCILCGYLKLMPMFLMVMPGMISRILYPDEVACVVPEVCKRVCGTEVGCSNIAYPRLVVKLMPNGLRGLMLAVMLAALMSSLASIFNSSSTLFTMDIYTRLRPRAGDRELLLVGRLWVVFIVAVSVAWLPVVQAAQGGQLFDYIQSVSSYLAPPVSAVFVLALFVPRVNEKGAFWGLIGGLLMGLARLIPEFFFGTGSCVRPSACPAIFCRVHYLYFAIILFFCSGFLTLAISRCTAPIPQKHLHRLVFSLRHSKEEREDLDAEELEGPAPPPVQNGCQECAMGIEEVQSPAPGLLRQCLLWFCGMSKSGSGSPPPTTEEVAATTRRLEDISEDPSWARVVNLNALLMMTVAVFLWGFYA
The assay is described as follows: In vivo inhibition of SGLT2-mediated reduction in urinary glucose excretion in rat administered orally. To be noted: route po. Format: functional, organism-based.

Assay [3] concerns the target T1, Sodium/glucose cotransporter 2 (Mus musculus). The assay is described as follows: In vivo inhibition of SGLT2-mediated increase in blood glucose level in mouse administered intraperitoneally. Type of assay: functional, organism-based. To be noted: route ip.
For assay [4] the target is unchanged. The assay is described as follows: In vivo inhibition of SGLT2-mediated increase in blood glucose level in mouse administered orally. Type of assay: functional, organism-based. To be noted: route po.
Assay [5] deals with T3, Sodium/glucose cotransporter 1 (Homo sapiens, UniProt P13866).
T3 sequence (P13866 whole entry): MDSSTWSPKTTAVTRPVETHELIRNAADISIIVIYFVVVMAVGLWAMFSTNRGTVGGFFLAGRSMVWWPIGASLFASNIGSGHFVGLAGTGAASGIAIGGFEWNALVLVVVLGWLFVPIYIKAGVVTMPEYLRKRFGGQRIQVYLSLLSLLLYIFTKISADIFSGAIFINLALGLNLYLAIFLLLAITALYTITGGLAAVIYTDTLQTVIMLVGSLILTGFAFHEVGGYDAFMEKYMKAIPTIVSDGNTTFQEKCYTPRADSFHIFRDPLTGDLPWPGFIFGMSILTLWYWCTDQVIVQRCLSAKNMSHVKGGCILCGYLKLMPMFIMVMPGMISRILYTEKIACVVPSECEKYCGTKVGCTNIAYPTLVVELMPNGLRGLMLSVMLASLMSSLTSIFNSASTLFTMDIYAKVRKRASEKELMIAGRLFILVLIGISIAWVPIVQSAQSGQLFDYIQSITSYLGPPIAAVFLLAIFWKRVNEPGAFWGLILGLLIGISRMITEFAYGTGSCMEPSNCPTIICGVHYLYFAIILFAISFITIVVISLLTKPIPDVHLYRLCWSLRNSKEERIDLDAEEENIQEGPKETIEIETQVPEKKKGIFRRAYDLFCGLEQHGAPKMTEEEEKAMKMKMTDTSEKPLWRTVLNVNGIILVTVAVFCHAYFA
The assay is described as follows: Inhibition of SGLT1 (unknown origin).

Assay [6] addresses T4, Sodium/glucose cotransporter 2 (Homo sapiens, UniProt P31639).
T4 sequence (P31639 whole entry): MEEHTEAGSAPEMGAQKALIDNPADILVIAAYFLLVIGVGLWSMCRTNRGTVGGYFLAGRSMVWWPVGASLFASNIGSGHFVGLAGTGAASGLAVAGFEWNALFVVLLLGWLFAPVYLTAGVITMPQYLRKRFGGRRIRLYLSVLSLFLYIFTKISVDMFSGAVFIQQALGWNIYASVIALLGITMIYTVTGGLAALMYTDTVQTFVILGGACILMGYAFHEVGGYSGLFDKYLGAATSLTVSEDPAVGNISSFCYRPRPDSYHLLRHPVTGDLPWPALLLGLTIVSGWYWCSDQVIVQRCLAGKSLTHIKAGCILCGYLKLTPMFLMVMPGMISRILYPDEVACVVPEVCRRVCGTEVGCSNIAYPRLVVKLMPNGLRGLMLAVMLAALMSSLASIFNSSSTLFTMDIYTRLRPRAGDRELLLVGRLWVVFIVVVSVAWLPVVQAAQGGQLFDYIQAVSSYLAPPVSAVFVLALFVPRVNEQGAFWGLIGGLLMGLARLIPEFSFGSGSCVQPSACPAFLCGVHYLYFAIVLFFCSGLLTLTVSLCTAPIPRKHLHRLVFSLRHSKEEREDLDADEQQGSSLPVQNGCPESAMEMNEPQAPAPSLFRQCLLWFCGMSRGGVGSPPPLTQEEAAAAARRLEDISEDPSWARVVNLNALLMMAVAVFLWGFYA
The assay is described as follows: Inhibition of human SGLT2 expressed in HEK293 cells using 14C-AMG as substrate preincubated for 15 mins followed by substrate addition measured after 2 hrs by liquid scintillation counter analysis. Type of assay: cell-based.

For assay [7], the target named is T3, Sodium/glucose cotransporter 1. The assay is described as follows: Inhibition of human SGLT1 expressed in HEK293 cells using 14C-AMG as substrate preincubated for 15 mins followed by substrate addition measured after 2 hrs by liquid scintillation counter analysis. Type of assay: cell-based.
The target of assay [8] is T4, Sodium/glucose cotransporter 2. The assay is described as follows: Inhibition of human SGLT2.
The target of assay [9] is T5, Sodium/glucose cotransporter 2 (Rattus norvegicus, UniProt P53792).
T5 sequence (P53792 whole entry): T2 sequence (whole entry)
The assay is described as follows: Inhibition of rat SGLT2.

The target in assay [10] is T6, Sodium/glucose cotransporter 2 (Mus musculus, UniProt Q923I7).
T6 sequence (Q923I7 whole entry): T1 sequence (whole entry)
The assay is described as follows: Inhibition of mouse SGLT2.

For the compound `COc1ccc(Cc2sccc2O[C@@H]2O[C@H](CO)[C@@H](O)[C@H](O)[C@H]2O)cc1` [ATIGLIFLOZIN], the ID30 in assay [1] turned out to be 79 mg/kg; in [2] it was 39.8 mg/kg. For the same compound, the values for the ID50 in assay [3] and in [4] were 13.2 mg/kg and 26.1 mg/kg, respectively. In assay [5], the IC50 was > 10000 nM.

In the case of `CCOc1ccc(Cc2cc([C@@]34OC[C@@](CO)(O3)[C@@H](O)[C@H](O)[C@H]4O)ccc2Cl)cc1F` [HENAGLIFLOZIN], the IC50 in assay [6] was found to be 2.38 nM; in assay [7], 4320 nM.

For `CCOC(=O)OC[C@H]1O[C@@H](Oc2nn(C(C)C)c(C)c2Cc2ccc(OC(C)C)cc2)[C@H](O)[C@@H](O)[C@@H]1O` [REMOGLIFLOZIN ETABONATE], the results for the Ki in [8] and in assay [9] were 1950 nM and 2140 nM, respectively.

`CCc1ccc(Cc2ccc3c(c2)[C@]2(OC3)O[C@H](CO)[C@@H](O)[C@H](O)[C@H]2O)cc1` [TOFOGLIFLOZIN]: the Ki worked out at 2.9 nM in [8], 14.9 nM in assay [9] and 6.4 nM in [10].

A word on the IC50: it is the concentration at which inhibition is half-maximal. A high value points to lower potency. As a reminder, the Ki is the dissociation constant of the complex between target and ligand, obtained from inhibition or displacement. Read a high Ki as weaker binding.
